In patent publication US20230355622A1, “METHODS OF CHEMOVACCINATION AGAINST PLASMODIUM INFECTIONS” (Merck Sharp & Dohme LLC, priority 2020, published 2023):
Like-named read-outs stand apart in the source and are kept apart here.

System: parasite
Experiment: Parasite LDH growth assay (Parasite Assay), antiparasite potency
Format: cell-based
Details: parasite LDH growth assay, ring stage parasites, 72 hours incubation at 37° C., read-out: EC50
Outline: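 Ring-stage parasites at 0.7% parasitemia and 2% haematocrit, in RPMI-Hepes/bicarbonate with 5% heat-inactivated human serum and 0.5% albumax, were added to compound-containing medium. Cultures grew 72 h at 37 °C in gassed humidified boxes. Plates were then frozen overnight at −80 °C, thawed 4 h, and growth was measured by LDH assay.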

CC[C@@]1(C)CC(=O)N([C@@H]2CCOc3ccc(C(=O)N[C@@H]4c5cc(F)ccc5OC(C)(C)[C@H]4O)cc32)C(=N)N1 [Example 225, (4R)-4-[(4S)-4-ethyl-2-imino-4-methyl-6-oxo-hexahydropyrimidin-1-yl]-N-[(3S,4R)-6-fluoro-3-hydroxy-2,2-dimethyl-chroman-4-yl]chromane-6-carboxamide] gave an EC50 (72 h) of 0.8 nM.
For CCC1(CC)CC(=O)N([C@@H]2CCOc3ccc(C(=O)NC4c5cc(F)ccc5OCC4(C)O)cc32)C(=N)N1 (stereo partly drawn) [Example 226D, (4R)-4-(4,4-diethyl-2-imino-6-oxo-hexahydropyrimidin-1-yl)-N-(6-fluoro-3-hydroxy-3-methyl-chroman-4-yl)chromane-6-carboxamide], the EC50 was 1 nM.
Compound CCC1(CC)CC(=O)N([C@H]2c3cc(C(=O)N[C@@H]4c5ccccc5C[C@@]4(C)O)ccc3OC[C@H]2COC)C(=N)N1 [Example 235, (3R,4R)-4-(4,4-diethyl-2-imino-6-oxo-hexahydropyrimidin-1-yl)-N-[(1R,2R)-2-hydroxy-2-methyl-indan-1-yl]-3-(methoxymethyl)chromane-6-carboxamide] has an EC50 (72 h) of 0.7 nM.
In the case of CCC1(CC)CC(=O)N([C@@H]2C[C@@H](OC)c3ccc(C(=O)N[C@@H]4c5ccccc5OC(C)(C)[C@H]4O)cc32)C(=N)N1 [Example 236, (1R,3R)-3-(4,4-diethyl-2-imino-6-oxo-hexahydropyrimidin-1-yl)-N-[(3S,4R)-3-hydroxy-2,2-dimethyl-chroman-4-yl]-1-methoxy-indane-5-carboxamide], the EC50 (72 h) is reported as 0.9 nM.
With CCC1(CC)CC(=O)N([C@@H]2C[C@H](OC)c3ccc(C(=O)N[C@@H]4c5ccccc5OC(C)(C)[C@H]4O)cc32)C(=N)N1 [Example 239, (1S,3R)-3-(4,4-diethyl-2-imino-6-oxo-hexahydropyrimidin-1-yl)-N-[(3S,4R)-3-hydroxy-2,2-dimethyl-chroman-4-yl]-1-methoxy-indane-5-carboxamide] the EC50 (72 h) was 0.9 nM.
CCC1(CC)CC(=O)N([C@H]2c3cc(C(=O)N[C@@H]4c5ccccc5OC(C)(C)[C@H]4O)ccc3OC[C@@H]2C)C(=N)N1 [Example 240, (3R,4R)-4-(4,4-diethyl-2-imino-6-oxo-hexahydropyrimidin-1-yl)-N-[(3S,4R)-3-hydroxy-2,2-dimethyl-chroman-4-yl]-3-methyl-chromane-6-carboxamide] was tested, and the EC50 (72 h) was 0.6 nM.
CCC1(CC)CC(=O)N([C@H]2c3cc(C(=O)N[C@@H]4c5ccccc5OC(C)(C)[C@H]4O)ccc3OC[C@H]2C)C(=N)N1 [Example 241, (3S,4R)-4-(4,4-diethyl-2-imino-6-oxo-hexahydropyrimidin-1-yl)-N-[(3S,4R)-3-hydroxy-2,2-dimethyl-chroman-4-yl]-3-methyl-chromane-6-carboxamide] was tested, and the EC50 (72 h) was 0.4 nM.
Compound CCC1(CC)CC(=O)N([C@@H]2CCOc3ccc(C(=O)NC4c5ccccc5OC(C)(C)C4(C)O)cc32)C(=N)N1 (stereo partly drawn) [Example 242A, (4R)-4-(4,4-diethyl-2-imino-6-oxo-hexahydropyrimidin-1-yl)-N-(3-hydroxy-2,2,3-trimethyl-chroman-4-yl)chromane-6-carboxamide] has an EC50 of 0.6 nM.
In the case of CCC1(CC)CC(=O)N([C@H]2c3cc(C(=O)N[C@@H]4c5ccccc5OC(C)(C)[C@H]4O)ccc3OC2(C)C)C(=N)N1 [Example 245, (3S)-3-(4,4-diethyl-2-imino-6-oxo-hexahydropyrimidin-1-yl)-N-[(3S,4R)-3-hydroxy-2,2-dimethyl-chroman-4-yl]-2,2-dimethyl-3H-benzofuran-5-carboxamide], the EC50 (72 h) is reported as 0.8 nM.
CCC1(CC)CC(=O)N([C@@H]2C[C@@H](C)Oc3ccc(C(=O)N[C@@H]4c5ccccc5OC(C)(C)[C@H]4O)cc32)C(=N)N1 [Example 246, (2R,4R)-4-(4,4-diethyl-2-imino-6-oxo-hexahydropyrimidin-1-yl)-N-[(3S,4R)-3-hydroxy-2,2-dimethyl-chroman-4-yl]-2-methyl-chromane-6-carboxamide] was tested, and the EC50 (72 h) was 2 nM.
CCC1(CC)CC(=O)N([C@H]2c3cc(C(=O)N[C@@H]4c5ccccc5OC[C@@]4(C)O)ccc3CC[C@@H]2OC)C(=N)N1 [Example 247, (3S,4S)-4-(4,4-diethyl-2-imino-6-oxo-hexahydropyrimidin-1-yl)-N-[(3S,4R)-3-hydroxy-3-methyl-chroman-4-yl]-3-methoxy-tetralin-6-carboxamide] showed an EC50 (72 h) of 4.5 nM.
CCC1(CC)CC(=O)N([C@@H]2CCCOc3ccc(C(=O)N[C@@H]4c5ccccc5OC(C)(C)[C@H]4O)cc32)C(=N)N1 [Example 248, (5R)-5-(4,4-diethyl-2-imino-6-oxo-hexahydropyrimidin-1-yl)-N-[(3S,4R)-3-hydroxy-2,2-dimethyl-chroman-4-yl]-2,3,4,5-tetrahydro-1-benzoxepine-7-carboxamide] showed an EC50 (72 h) of 0.8 nM.
Work on CCC1(CC)CC(=O)N([C@@H]2CCOc3ccc(C(=O)NC4c5ccccc5CC4(O)C(F)(F)F)cc32)C(=N)N1 (stereo partly drawn) [Example 272C, (4R)-4-(4,4-diethyl-2-imino-6-oxo-hexahydropyrimidin-1-yl)-N-[2-hydroxy-2-(trifluoromethyl)indan-1-yl]chromane-6-carboxamide] yielded an EC50 of 0.9 nM.
For CCC1(CC)CC(=O)N([C@H]2c3cc(C(=O)N[C@@H]4c5ccccc5OC(C)(C)[C@H]4O)ccc3CC[C@@H]2OC)C(=N)N1 [Example 276, (3S,4S)-4-(4,4-diethyl-2-imino-6-oxo-hexahydropyrimidin-1-yl)-N-[(3S,4R)-3-hydroxy-2,2-dimethyl-chroman-4-yl]-3-methoxy-tetralin-6-carboxamide], the EC50 (72 h) was 0.6 nM.
Work on CC[C@]1(C)CC(=O)N([C@H]2c3cc(C(=O)N[C@@H]4c5ccccc5OC(C)(C)[C@H]4O)ccc3OC[C@@H]2COC)C(=N)N1 [Example 277, (3S,4R)-4-[(4R)-4-ethyl-2-imino-4-methyl-6-oxo-hexahydropyrimidin-1-yl]-N-[(3S,4R)-3-hydroxy-2,2-dimethyl-chroman-4-yl]-3-(methoxymethyl)chromane-6-carboxamide] yielded an EC50 (72 h) of 0.4 nM.
CC[C@]1(C)CC(=O)N([C@H]2c3cc(C(=O)N[C@@H]4c5ccccc5OC(C)(C)[C@H]4O)ccc3OCC2(C)OC)C(=N)N1 (stereo partly drawn) [Example 284, 4-[(4R)-4-ethyl-2-imino-4-methyl-6-oxo-hexahydropyrimidin-1-yl]-N-[(3S,4R)-3-hydroxy-2,2-dimethyl-chroman-4-yl]-3-methoxy-3-methyl-chromane-6-carboxamide] gave an EC50 (72 h) of 8.5 nM.
CCC1(CC)CC(=O)N([C@@H]2CCS(=O)(=O)c3ccc(C(=O)N[C@H]4CC(C)(C)Oc5ccccc54)cc32)C(=N)N1 [Example 289, (4R)-4-(4,4-diethyl-2-imino-6-oxo-hexahydropyrimidin-1-yl)-N-[(4S)-2,2-dimethylchroman-4-yl]-1,1-dioxo-3,4-dihydro-2H-thiochromene-6-carboxamide] was tested, and the EC50 was 0.6 nM.
With CCC1(CC)CC(=O)N([C@H]2c3cc(C(=O)N[C@@H]4c5ccccc5C(F)(F)[C@H]4O)ccc3O[C@@]2(C)COC)C(=N)N1 [Example 290, (2R,3S)-3-(4,4-diethyl-2-imino-6-oxo-hexahydropyrimidin-1-yl)-N-[(1R,2S)-3,3-difluoro-2-hydroxy-indan-1-yl]-2-(methoxymethyl)-2-methyl-3H-benzofuran-5-carboxamide] the EC50 (72 h) was 0.3 nM.
CCC1(CC)CC(=O)N([C@H]2c3cc(C(=O)N[C@H]4c5ccccc5C(F)(F)[C@@H]4O)ccc3O[C@@]2(C)COC)C(=N)N1 [Example 291, (2R,3S)-3-(4,4-diethyl-2-imino-6-oxo-hexahydropyrimidin-1-yl)-N-[(1S,2R)-3,3-difluoro-2-hydroxy-indan-1-yl]-2-(methoxymethyl)-2-methyl-3H-benzofuran-5-carboxamide] showed an EC50 (72 h) of 240 nM.
For CCC1(CC)CC(=O)N([C@@H]2c3cc(C(=O)N[C@@H]4c5ccccc5OC(C)(C)[C@H]4O)ccc3OC[C@@]2(C)OC)C(=N)N1 [Example 295, (3S,4R)-4-(4,4-diethyl-2-imino-6-oxo-hexahydropyrimidin-1-yl)-N-[(3S,4R)-3-hydroxy-2,2-dimethyl-chroman-4-yl]-3-methoxy-3-methyl-chromane-6-carboxamide], the EC50 (72 h) was 100 nM.
With CCC1(CC)CC(=O)N([C@H]2c3cc(C(=O)N[C@@H]4c5ccccc5OC(C)(C)[C@H]4O)ccc3OC[C@]2(C)OC)C(=N)N1 [Example 296, (3R,4S)-4-(4,4-diethyl-2-imino-6-oxo-hexahydropyrimidin-1-yl)-N-[(3S,4R)-3-hydroxy-2,2-dimethyl-chroman-4-yl]-3-methoxy-3-methyl-chromane-6-carboxamide] the EC50 (72 h) was 0.3 nM.
Compound CCC1(CC)CC(=O)N([C@H]2c3cc(C(=O)N[C@@H]4c5ccccc5OC(C)(C)[C@H]4O)ccc3OC[C@H]2COC)C(=N)N1 [Example 298, (3R,4R)-4-(4,4-diethyl-2-imino-6-oxotetrahydropyrimidin-1(2H)-yl)-N-((3S,4R)-3-hydroxy-2,2-dimethylchroman-4-yl)-3-(methoxymethyl)chromane-6-carboxamide] has an EC50 (72 h) of 0.5 nM.
CCC1(CC)CC(=O)N([C@H]2c3cc(C(=O)N[C@@H]4c5ccccc5OC(C)(C)[C@H]4O)ccc3OC[C@@H]2COC)C(=N)N1 [Example 299, (3S,4R)-4-(4,4-diethyl-2-imino-6-oxo-hexahydropyrimidin-1-yl)-N-[(3S,4R)-3-hydroxy-2,2-dimethyl-chroman-4-yl]-3-(methoxymethyl)chromane-6-carboxamide] showed an EC50 (72 h) of 0.8 nM.
